In ChEMBL document CHEMBL4130640, “Optimizing a Weakly Binding Fragment into a Potent RORγt Inverse Agonist with Efficacy in an in Vivo Inflammation Model” (J Med Chem, 2018):
Values after ≈ are worked out from the molar mass of the structure shown.

Assays:
[1] = pampa
[2] = physchem; details: aqueous solution, pH 6.8

log(permeability) [1]: -3.7
solubility thermodynamic [2]: 28 µM (≈ 10.3 µg/mL)
SMILES: C[C@H](Oc1ncc(NC(=O)Cc2ccncc2)cc1Cl)c1ccccc1
